# Read-outs that look alike come from different tables or passages of the source. Where no end group is shown, it is not given here.
# Key:
# [1] = test system: SARS-CoV-2 spike pseudovirions
# [2] = test system: SARS-CoV-2 spike pseudovirion; settings: cited from earlier work
# [3] = molecular target: SARS-CoV-2 spike RBD (Severe acute respiratory syndrome coronavirus 2, UniProt P0DTC2); experiment: biochemical; assay type: binding
# [4] = test system: Human umbilical vein endothelial cells (HUVECs); experiment: HUVEC viability; assay type: cell-based
# [5] = test system: BALB/c mice; experiment: In vivo toxicity after intranasal administration; parameters: species or system mouse; settings: 2.5 mg/kg single intranasal dose
substance,measurement,setting,value
ACE2,"IC50, inhibition of SARS-CoV-2 spike pseudovirion infection",[1],0.067 µg/mL
LL37,"IC50, SARS-CoV-2 spike pseudovirion infection",[2],4.74 µg/mL
"GKGDFRI [GK-7, GKGDFRI]",Kd,[3],25.1 nM
same,"IC50, inhibition of SARS-CoV-2 spike pseudovirion infection","[1]; spike pseudovirions, 12 h",2.96 µg/mL
same,HUVEC survival,"[4]; 24 h, doses up to 200 μg/mL, CCK-8",did not affect cell survival
same,fold of highest non-cytotoxic dose (200 μg/mL) over pseudovirion IC50,[4]; HUVECs 24 h versus IC50 2.96 μg/mL,approximately 68 fold
same,"effect on ALT, AST, blood urea and creatinine contents",[5],minor effects
same,HE staining of major organs,[5]; day 7,no pathological changes
same,"effect on RBC, WBC and platelet counts in the blood",[5]; day 7,minor effects
same,"effect on organ index (heart, liver, spleen, lungs, kidneys)",[5]; day 7,minor effects

# Reference: paper PMC8375220 (Peptides, 2021)
